Measurements: patent publication US4663332A, “5-substituted N-alkylated tetrazoles” (Hoffman-La Roche Inc., priority 1985, dated 1987)

Columns and labels:
PAF [1] = experiment: Inhibition of PAF-Induced Platelet Aggregation (Inhib. of PAF Platelet Reduction); type: in vivo, guinea pig; details: Cavia porcellus, iv, 3 mg/kg i.v.
Method: (5) Inhibition of PAF-Induced Platelet Aggregation (Inhib. of PAF Platelet Reduction)
Guinea pigs (anesthetized) are set up to withdraw blood for platelet counting. The animal is allowed to stabilize after completion of surgical procedures. The carotid catheter is allowed to bleed back blood and then is filled, prior to each sample withdrawal with sodium citrate 3.8% (0.15 ml). Blood (0.25 ml) is withdrawn 30 seconds prior to the PAF challenge and at 15, 30 and 60 seconds after the PAF challenge. This first PAF challenge is used as the control, assuming sufficient decreases in platelet count are observed. The amount of PAF used will be approximately 50 ng/kg, however, this can be increased to achieve the desired decreases in platelet count. Fifteen minutes after the control PAF challenge, intravenous drug dosing begins, with animals being dosed at 30 minute intervals; PAF challenge follows 15 minutes after each intravenous dose. Three intravenous drug doses are used in each experiment. Initial drug doses are 1, 3 and 10 mg/kg i.v. Inhibition of PAF platelet reduction at 3 mg/kg i.v. for representative compounds of the invention are summarized hereinafter in Tables I and II. Percent inhibition is [formula]

TXA2 synthase = target: T1, TXA2 synthase (Homo sapiens, UniProt P24557); experiment: Thromboxane Synthase Inhibition, In Vitro (TXA2 Synth. Inhib.); type: biochemical; details: human platelet microsomes, 10 μM 14C-PGH2, 22° C., 2 min
T1 construct: using microsomal fractions from human platelets as enzyme source; from tissue; host or cells: microsomal fractions from human platelets
T1 sequence (P24557 1-533): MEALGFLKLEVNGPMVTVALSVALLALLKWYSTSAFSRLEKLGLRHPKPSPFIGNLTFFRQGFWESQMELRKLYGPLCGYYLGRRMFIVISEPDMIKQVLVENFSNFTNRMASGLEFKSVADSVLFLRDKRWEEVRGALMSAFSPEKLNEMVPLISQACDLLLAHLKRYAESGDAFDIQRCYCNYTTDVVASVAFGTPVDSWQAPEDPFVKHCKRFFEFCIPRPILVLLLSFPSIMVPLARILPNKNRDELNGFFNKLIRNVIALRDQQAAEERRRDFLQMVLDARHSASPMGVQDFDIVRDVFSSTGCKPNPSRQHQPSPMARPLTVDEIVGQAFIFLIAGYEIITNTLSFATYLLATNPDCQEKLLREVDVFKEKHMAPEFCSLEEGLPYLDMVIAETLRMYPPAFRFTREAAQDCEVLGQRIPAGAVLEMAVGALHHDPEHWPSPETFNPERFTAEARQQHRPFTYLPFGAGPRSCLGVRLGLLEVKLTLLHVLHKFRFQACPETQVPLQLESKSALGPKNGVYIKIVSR
Method: (2) Thromboxane Synthase Inhibition, In Vitro (TXA2 Synth. Inhib.)
TXA2 synthase activity is measured by following the conversion of ^14 C-prostaglandin endoperoxide (PGH2) to ^14 C-thromboxane A2 (TXA2) using microsomal fractions from human platelets as enzyme source. In the aqueous incubation medium, the TXA2 decomposes rapidly into TXB2. The amount of TXA2 synthase is adjusted so that under the conditions of the assay approximately 80-90% of the substrate, PGH2, is converted to product in control tubes. To prepare ^14 C-PGH2, ^14 C-AA (50-60 mCi/mmole; Rose Chem.) is incubated with sheep seminal vesicular gland microsomes for 1.5 minutes at 37° C. and then the ^14 C-PGH2 is extracted with diethylether, purified on columns oof Sephadex LH-20 or silicic acid, and stored in acetone at -70° C. Incubations are done as follows. Sufficient ^14 C-PGH2 to yield a final substrate concentration of 10 μM (30,000 cpm) is added to the incubation tubes and then the acetone is removed under nitrogen. The tubes are placed in an ice bath and then 215 μl of ice cold phosphate buffered saline, 10 μl of ethanol (control) or of test drug in ethanol, and 25 μl of the microsomal suspension are added with mixing in that order as rapidly as possible. The tubes are incubated at 22° C. for 2 minutes, the reaction is stopped and then the radioactive products and the unconverted PGH2 are extracted and analyzed by thin layer chromatography. […] The amount of ^14 C-PGH2 converted to products was used as a measure of TXA2 synthase activity. Inhibitors were tested initially at a final concentration 100 μM. Results obtained with representative compounds of the present invention in this assay are summarized hereafter in Tables I and II. IC50 is the drug concentration (μMolar) which inhibits TXA2 activity by 50%.

PAF [2] = experiment: Inhibition of PAF Induced Guinea Pig Bronchoconstriction Test (Inhib. of PAF Broncho.); type: in vivo, guinea pig (Hartley strain); details: Cavia porcellus, iv; 1 mg/kg i.v. (1 min. pretreat)
Method: (3) Inhibition of PAF Induced Guinea Pig Bronchoconstriction Test (Inhib. of PAF Broncho.)
Male guinea pigs (Hartley strain) weighing 300 to 500 g are anesthetized with urethane (2 g/kg) intraperitoneally and a polyethylene cannula is inserted into the jugular vein for drug administration. Tracheal pressure is recorded from a cannula inserted in the trachea and connected to a Statham pressure transducer. Propranolol (0.1 mg/kg) is administered intravenously five minutes before challenge with synthetic PAF, the animal's skeletal muscles are then paralyzed with succinylcholine (1.2 mg/kg i.v.), and the animal is respirated using a Harvard small animal respirator operating at 40 breaths/min and 2.5 cc stroke volume. Under these conditions PAF induces a dose-dependent increase in ventilatory pressure over a dose range of 0.5 to 5 μg/kg i.v. For screening purposes animals are challenged with a single dose of PAF (10 μg/kg i.v.).
The peak increase in ventilatory pressure (cm H2 O) is recorded for three control animals and five drug-treated animals and the percent inhibition determined from the following formula [formula] Results obtained with representative compounds of the invention in this test are summarized hereinafter in Tables I and II.

[3] = target: T2, PAF binding to dog platelets (Canis lupus familiaris, UniProt A0A8I3NSH0); experiment: PAF Radioreceptor Binding Assay (PAF Binding); details: inhibition of 3H-PAF binding to dog platelets, 10 min, room temperature
T2 construct: from tissue; host or cells: washed platelets from citrate-treated dog blood
T2 sequence (A0A8I3NSH0 1-343): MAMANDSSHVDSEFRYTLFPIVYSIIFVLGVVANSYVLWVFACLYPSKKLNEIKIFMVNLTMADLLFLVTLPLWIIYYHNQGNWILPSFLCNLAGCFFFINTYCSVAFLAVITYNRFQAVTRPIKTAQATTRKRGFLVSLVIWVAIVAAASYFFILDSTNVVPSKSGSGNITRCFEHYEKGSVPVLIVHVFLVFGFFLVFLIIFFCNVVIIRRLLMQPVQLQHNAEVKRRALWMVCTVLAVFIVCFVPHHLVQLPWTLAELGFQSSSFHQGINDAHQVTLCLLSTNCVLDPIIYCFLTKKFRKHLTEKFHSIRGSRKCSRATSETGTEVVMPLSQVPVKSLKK
Method: (1) PAF Radioreceptor Binding Assay (PAF Binding)
Platelet rich plasma is prepared by centrifugation of citrate-treated dog blood. Acidification to pH 6.5 with 0.15M citric acid and centrifugation for 10 minutes at 1000×g yields a platelet pellet which is then washed by resuspension in EDTA-Phosphate Buffered Saline (PBS) and recentrifuged. The washed platelet preparation is adjusted to 2×10^7 platelets/50 μl in 0.1% bovine serum albumin-PBS.
To a 400 μl microfuge tube containing 50 μl silicone oil (specific gravity 1.023) is added buffer, PAF standard or analog, or an extract to bring the aqueous volume to 150 μl. 50 μl of ^3 H-PAF (10,000 cpm, 45 Ci/mM) is added followed by 2×10^7 dog platelets. After mixing, incubating for 10 minutes at room temperature, and centrifuging for 1 minute in a Beckman Microfuge B (8000×g), the pellet is removed by clipping off the tip of the tube, the platelets are solubilized with 200 μl of 50% methanol and counted in 10 ml of Aquasol. […] Results obtained with representative copounds of the present invention in this assay are summarized hereinafter in Tables I and II. IC50 is drug concentration (μMolar) which inhibits PAF binding to dog platelets by 50%.

LTD4 = experiment: Leukotriene (LTD4) Induced arrhythmia and Hypertension Test; type: in vivo, guinea pig (Hartley); details: 100 mg/kg po, 3 hour pretreatment, conscious guinea pigs; for No. Animals with Abnormal Beat/No. Tested: first two minutes after LTD4, saline control 12/12; for ↑ABP (increase in blood pressure after LTD4): saline control 30 ± 4; for ↓ABP (decrease in blood pressure after LTD4): saline control -45 ± 4
Method: (6) Leukotriene (LTD4) Induced arrhythmia and Hypertension Test
Male Hartley guinea pigs are anesthetized with sodium pentobarbital and prepared for monitoring direct blood pressure and injecting drugs intravenously by catheterizing the right carotid artery and right jugular vein. Blood pressure, heart rate, and Lead II ECG are monitored in the conscious animal 24 hours later.
The oral activity of a drug is evaluated by pretreating animals 3 hours before the LTD4 challenge.
Intravenous administration of LTD4 2.5 μg/kg) is associated with an increase in blood pressure lasting approximately 1-2 minutes followed by a decrease lasting approximately 5-15 minutes. Abnormal beats consisting of premature ventricular contractions, ST elevation or depression, atrioventricular conduction block, or dissociated p waves begin during the rise in blood pressure; the peak effect occurs approximately 40 seconds after LTD4. The number of animals with abnormal beats within the first two minutes after the injection of LTD4 over the total number of animals tested is presented in Table III. During the hypotensive response, the animal usually collapses during the 2nd or 3rd minute after LTD4 and regains posture approximately 10 minutes after LTD4.

PAF [4] = experiment: Inhibition of PAF-Induced Rat Skin Wheal Test (Inhib. of PAF Skin Wheal); type: in vivo, Sprague-Dawley rats; details: 5 mg/kg i.v., 5 ng PAF intradermally
Method: (4) Inhibition of PAF-Induced Rat Skin Wheal Test (Inhib. of PAF Skin Wheal)
This test evaluates the ability of compounds to inhibit PAF-induced increases in vascular permeability in the skin of Sprague-Dawley rats. PAF induces a dose-dependent skin wheal response in this system over a dose range of 0.0001 to 1 μg/0.05 ml injection. The profound vasoactive activity of PAF is emphasized by the fact that the maximum skin wheal response is considerably greater than that obtained with LTE and an EC50 response is elicited at a 10-fold lower dose. […] Thirty minutes later the animals are sacrificed and the increase in vascular permeability induced by the migration of dye into the injection point in the skin is determined. For this purpose, rats are sacrificed by cervical dislocation,the dorsal skin is removed, the long and short axis of each animal is measured with a metric vernier caliper and the average diameter is obtained. Results obtained are measured as % of migration of dye as compared to untreated animals. More specifically, results are measured as a percent inhibition of the diameters of the wheals formed in a treated animals as compared to untreated animals. […]

Row | SMILES | inhibition in vivo at 3 mg/kg (PAF [1]) [%] | IC50 (TXA2 synthase) [nM] | inhibition in vivo at 1 mg/kg (PAF [2]) [%] | IC50 [3] [nM] | No. Animals with Abnormal Beat/No. Tested (LTD4) | ↑ABP (increase in blood pressure after LTD4) (LTD4) | ↓ABP (decrease in blood pressure after LTD4) (LTD4) | inhibition of PAF skin wheal (PAF [4]) [%]
1 | CCCc1c(OCCCc2nnnn2CCCCc2cccnc2)ccc(C(C)=O)c1O [H H 3 4 3-pyridyl, 1-[2-Hydroxy-3-propyl-4-[3-[1-[4-(3-pyridinyl)butyl]-1H-tetrazol-5-yl]propoxy]phenyl]ethanone] | 40 | 100 to 1000 | 59 ± 12 | 450 | – | – | – | –
2 | CCCc1c(OCCCCc2nnnn2CCCn2ccnc2)ccc(C(C)=O)c1O [H H 4 3 1-imidazolyl, 1-[2-Hydroxy-3-propyl-4-[4-[1-[3-(1H-imidazol-1-yl)propyl]-1H-tetrazol-5-yl]butoxy]phenyl]ethanone] | 3 | 100 to 1000 | 8 ± 8 | 175 | – | – | – | –
3 | CCCc1c(OCCCCCc2nnnn2CCCCc2cccnc2)ccc(C(C)=O)c1O [H H 5 4 3-pyridyl, 1-[2-Hydroxy-3-propyl-4-[5-[1-[4-(3-pyridinyl)butyl]-1H-tetrazol-5-yl]pentyloxy]phenyl]ethanone] | 0 | 100 to 1000 | 58 ± 14 | 275 | – | – | – | –
4 | CCCc1c(OCCCCCc2nnnn2CCCc2cccnc2)ccc(C(C)=O)c1OC(C)=O [H Ac 5 3 3-pyridyl, 1-[2-Acetoxy-3-propyl-4-[5-[1-[3-(3-pyridinyl)propyl]-1H-tetrazol-5-yl]pentyloxy]phenyl]ethanone] | 31 | 100 to 1000 | 84.8 ± 11 | 180 | – | – | – | –
5 | CCCc1c(OCCCCCc2nnnn2CCCc2cccnc2)ccc(C(C)=O)c1O [5 3, 1-[2-hydroxy-3-propyl-4-[5-[1-[3-(3-pyridinyl)propyl]-1H-tetrazol-5-yl]pentyloxy]phenyl]ethanone] | – | – | – | – | 0/4 | 13 ± 8 Δmm Hg | -20 ± 9 Δmm Hg | –
6 | CCCc1c(OCCCCc2nnnn2CCCc2cccnc2)ccc(C(C)=O)c1O [H H 4 3 3-pyridyl, 1-[2-Hydroxy-3-propyl-4-[4-[1-[3-(3-pyridinyl)propyl]-1H-tetrazol-5-yl]butoxy]phenyl]ethanone] | – | 100 to 1000 | 99 | 125 | – | – | – | 65±3
7 | CCCc1c(OCCCc2nnnn2CCCc2cccnc2)ccc(C(C)=O)c1O [3 3, 1-[2-Hydroxy-3-propyl-4-[3-[1-[3-(3-pyridinyl)propyl]-1H-tetrazol-5-yl]propoxy]phenyl]ethanone] | – | – | – | – | 1/4 | 14 ± 5 Δmm Hg | -23 ± 10 Δmm Hg | –
